Results from patent US10160764B2 (priority 2016, dated 2018).

Molecular target: influenza virus minigenome (PB2, PB1, PA, NP, Luciferase reporter), Hubei (Influenza A virus, UniProt A0A1L2FNK2)
Assay type: cell-based
Details: read-out: RNP_Hubei EC50

For O=C1c2c(O)c(=O)cnn2[C@@H]([C@@H](c2cccc(F)c2)c2ccc(F)c(F)c2)[C@H]2CCCN12 [Example 34, (9aR,10S)-10-((S)-(3,4-difluorophenyl)(3-fluorophenyl)methyl)-4-hydroxy-8,9,9a,10-tetrahydro-7H-pyrrolo[1′,2′:4,5]pyrazino[1,2-b]pyridazine-3,5-dione], which EC50 is on record?
The EC50 was 43 nM.
